Test results: PubChem BioAssay (NCI)
Where “and” joins values, the source holds several entries; their conditions need not be identical. Identical values can stand only once.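 A five-concentration, 48-hour dose response in 96-well plates underlies each endpoint, interpolated linearly between surrounding concentrations. At the GI50, growth is halved. TGI: concentration producing complete growth inhibition.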

What was measured:
Test in all cases: DTP human tumour cell line panel, 48 h
SF-539 CNS = test system: SF-539 CNS
NCI-H522 lung = test system: NCI-H522 lung
K-562 leukemia = test system: K-562 leukemia
HCC-2998 colon = test system: HCC-2998 colon
RPMI-8226 leukemia = test system: RPMI-8226 leukemia
OVCAR-5 ovarian = test system: OVCAR-5 ovarian
KM12 colon = test system: KM12 colon
SK-MEL-28 melanoma = test system: SK-MEL-28 melanoma
SW-620 colon = test system: SW-620 colon
PC-3 prostate = test system: PC-3 prostate

Compound | GI50 (SF-539 CNS) | TGI (SF-539 CNS) | GI50 (NCI-H522 lung) | TGI (NCI-H522 lung) | GI50 (K-562 leukemia) | TGI (K-562 leukemia) | GI50 (HCC-2998 colon) | TGI (HCC-2998 colon) | GI50 (RPMI-8226 leukemia) | TGI (RPMI-8226 leukemia) | GI50 (OVCAR-5 ovarian) | TGI (OVCAR-5 ovarian) | GI50 (KM12 colon) | TGI (KM12 colon) | GI50 (SK-MEL-28 melanoma) | TGI (SK-MEL-28 melanoma) | GI50 (SW-620 colon) | TGI (SW-620 colon) | GI50 (PC-3 prostate) | TGI (PC-3 prostate)
CC(C)(C)c1cn2cccc(C(=O)N3CCN(CC(=O)Nc4ccc(Cl)cc4C(=O)c4ccccc4Cl)CC3)c2n1 | 10 µM | 22.3 µM | 12.7 µM | 52.3 µM | > 100 µM | > 100 µM | 10.3 µM | 75.1 µM | 2.67 µM | 7.26 µM | 16.1 µM | 44.9 µM | 5.68 µM | 22.4 µM | 11 µM | 28.8 µM | 7.81 µM | 29.1 µM | 2.35 µM | 6.88 µM
O=C(Nc1cccc([N+](=O)[O-])c1)c1ccc2ccccc2c1O | 4.63 µM | > 64.8 µM | 1.89 µM | 6.96 µM | 2.79 µM | > 100 µM | 5.01 µM | > 100 µM | 1.28 µM | 5.99 µM | 20.6 µM | > 100 µM | 4.41 µM | > 81.2 µM | 6.03 µM | > 100 µM | 6.8 µM | > 100 µM | 3.87 µM | > 80.7 µM
COc1cc(OC)c2cc(C(=O)O)c(=O)oc2c1 | > 96.2 µM | > 100 µM | > 71.5 µM | > 100 µM | > 100 µM | > 100 µM | > 100 µM | > 100 µM | 6.1 µM | > 36.2 µM | > 100 µM | > 100 µM | > 100 µM | > 100 µM | > 29.5 µM | > 100 µM | > 100 µM | > 100 µM | > 100 µM | > 100 µM
CO/N=C(\COc1ccc2c(c1)oc(=O)c1cc(OC)ccc12)c1ccc(F)cc1 | 23.5 µM | 63 µM | 13 µM | 32.5 µM | 23.9 µM | 58.7 µM | 23.6 µM | 72.7 µM | 32.8 µM | > 100 µM | 29.4 µM | 83.4 µM | 33.7 µM | > 100 µM | 87.3 µM | > 100 µM | 34.8 µM | > 100 µM | 20.9 µM | 66.5 µM
COc1cc(/C=C/C(=O)C(C(=O)/C=C/c2ccc(OC(=O)CCNc3nnc(C)s3)c(OC)c2)C(=O)CCNc2nnc(C)s2)ccc1OC(=O)CCNc1nnc(C)s1 | 2.43 µM | 6.03 µM | 2.49 µM | 7.79 µM | 2.23 µM | 8.01 µM | 1.77 µM | 3.2 µM | 1.85 µM | 4.86 µM | 2.89 µM | 7.12 µM | 1.63 µM | 3.18 µM | 1.75 µM | 4.02 µM | 1.64 µM | 3.33 µM | 2.85 µM | 15.4 µM
CC(C)=CC(O)C/C(C)=C/CC/C(C)=C/CCC1(C)C(CCCO)/C(=C(/C)C=O)CCC1(C)O (stereo unspecified) | – | 52 µM | – | > 100 µM | – | 7.94 µM | – | 68.2 µM | – | 47.2 µM | – | > 100 µM | – | 52.9 µM | – | > 100 µM | – | > 100 µM | – | > 100 µM
NC(N)=N/N=C(/c1ccccc1)c1ccc(Cl)cc1 | 18.8 µM | 53.5 µM | 12.5 µM | 71.1 µM | 2.95 µM | > 100 µM | 16.3 µM | 47.5 µM | 1.53 µM | 26.6 µM | 47.3 µM | > 100 µM | 5.53 µM | > 100 µM | 8.03 µM | > 100 µM | 3.93 µM | > 100 µM | 3.84 µM | > 100 µM
CCOCC(=O)N[C@H]1CCc2cc(OC(=O)COCC)c(OC)c(OC)c2-c2ccc(SC)c(=O)cc21 | 0.0126 µM | 0.061 µM and 0.0554 µM | 0.0279 µM | 0.0389 µM and 0.107 µM | – | 0.0691 µM | 0.0211 µM | 0.0549 µM and 0.0866 µM | – | > 100 µM | 0.0549 µM | > 100 µM | – | – | > 100 µM | > 100 µM | – | > 100 µM | 0.0164 µM | –
O=C1Nc2ccccc2/C1=C/c1cn(C(=O)c2c(Cl)cccc2Cl)c2ccccc12 | 4.96 µM | 21.1 µM | 4.22 µM | 17.5 µM | 3.14 µM | > 100 µM | 6.03 µM | 19.6 µM | 3.38 µM | 23.6 µM | 8.85 µM | 50.1 µM | 1.76 µM | 3.95 µM | – | – | 2.9 µM | 12.5 µM | 2.39 µM | 11.2 µM
COc1ccc(/C(=N\O)c2cc(OC)c(OC)c(OC)c2)c(OC)c1N | 2.89 µM | > 100 µM | 3.3 µM | > 100 µM | 1.5 µM | > 100 µM | 3.29 µM | > 100 µM | 4.44 µM | > 100 µM | – | – | 2.11 µM | > 100 µM | – | – | 3.97 µM | > 100 µM | 4 µM | > 100 µM
COc1cc(C(=O)/C=C/c2c(-c3ccc(F)cc3)nc3ncccn23)cc(OC)c1OC | 1.55 µM | 3.77 µM | 2.87 µM | 10.6 µM | 3.03 µM | > 100 µM | 1.77 µM | 3.42 µM | 2.56 µM | > 100 µM | 2.46 µM | 7.37 µM | 1.69 µM | 4.37 µM | 3.68 µM | > 100 µM | – | – | 4.35 µM | > 100 µM
